Results from US11014898B1, “Benzothiazepine compounds and their use as bile acid modulators” (Albireo AB, priority 2020, dated 2021).

What was measured:
[1] = target: T1, Human LBAT (Homo sapiens, UniProt Q14973); test: LBAT (h) assay: 3H-taurocholic acid uptake in human LBAT-overexpressing cells; type: cell-based; conditions: 0.3 μM 3H-taurocholic acid and 7.5 μM cold taurocholic acid, 20 minutes, read-out: hLBAT IC50
T1 construct: expressed in transfected cells; cells kept under Geneticin selection
T1 sequence (Q14973 1-349): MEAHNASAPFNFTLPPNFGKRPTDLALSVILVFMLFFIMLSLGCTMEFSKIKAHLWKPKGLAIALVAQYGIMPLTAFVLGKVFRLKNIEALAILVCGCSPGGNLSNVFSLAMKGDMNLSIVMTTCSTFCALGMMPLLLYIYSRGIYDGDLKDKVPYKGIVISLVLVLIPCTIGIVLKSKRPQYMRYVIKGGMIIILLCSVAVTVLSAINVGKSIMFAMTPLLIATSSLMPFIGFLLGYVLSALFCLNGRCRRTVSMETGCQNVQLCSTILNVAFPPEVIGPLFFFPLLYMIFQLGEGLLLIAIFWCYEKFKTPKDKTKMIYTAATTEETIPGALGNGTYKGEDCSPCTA
Procedure: 20,000 cells (Human or Mouse LBAT-overexpressing cells) were seeded in 96-wells plate (Corning CLS3809) in 100 μL MEM-alpha medium (Gibco 12571-063) supplemented with 10% FBS (Gibco 10438026) containing Geneticin (Gibco 10131-027) (1 mg/mL) and incubated at 37° C. in 5% CO2 for 24 hours. After incubation, media was decanted from the wells and cells were washed two times with 300 μL of basal MEM-alpha medium (FBS-free). After decanting basal MEM-alpha medium each time, plates were tapped against paper towel to ensure maximum removal of residual media. For human LBAT, incubation mix was prepared by adding test inhibitor dilutions (3-fold serial dilution in DMSO (Sigma D2650), 10 points) in MEM-alpha (without FBS) containing 0.3 μM 3H-taurocholic acid (ARC ART-1368) and 7.5 μM cold taurocholic acid (Sigma T4009) (maintaining 0.2% final DMSO concentration). For mouse LBAT, incubation mix was prepared by adding test inhibitor dilutions (3-fold serial dilution in DMSO, 10 points) in MEM-alpha (without FBS) containing 0.3 μM 3H-taurocholic acid and 25 μM cold taurocholic acid maintaining 0.2% final DMSO concentration).
50 μL of incubation mix containing test inhibitors was then added to the wells (in duplicate) and the plates were incubated for 20 minutes in a CO2 incubator at 37° C. After incubation, the reaction was stopped by keeping the plates on ice water mix for 2-3 minutes and then the incubation mix was aspirated completely from the wells. The wells were washed two times with 250 μL of chilled unlabelled 1 mM taurocholic acid dissolved in HEPES (Gibco 15630080)-buffered (10 mM) HBSS (Gibco 14175079) (pH 7.4). The plates were tapped against a paper towel after every wash to ensure maximum removal of blocking buffer.
100 μL of MicroScint-20 (PerkinElmer 6013621) was added to the wells and kept overnight at room temperature before reading the plates in TopCount NXT™ Microplate Scintillation and Luminescence Counter from PerkinElmer under 3H Test protocol (set at 120 seconds reading time per well, with normal plate orientation).
All test compounds were provided in powder form at room temperature. 10 mM DMSO stocks of the test compounds were prepared, aliquoted and stored at −20° C. From the 10 mM DMSO stock of the compounds, a 3-fold serial dilution in DMSO was prepared to get a total of 10 dilutions of the test compounds. 0.5 μL of this dilution in DMSO was added to 250 μL of FBS-free basal media containing 3H-taurocholic acid and cold taurocholic acid to prepare the incubation mixture.

[2] = Bidirectional permeability assay (Caco-2 cells); type: in vitro ADME; conditions: human, Caco-2, pH 7.4, 10 μM in FaSSIF buffer, 120 minutes at 37° C.; for Papp A→B at 120 min, 10 μM: absorptive direction (A2B); for Papp B→A at 120 min, 10 μM: secretory direction (B2A)
Procedure: Caco-2 cells (Evotec) were seeded at a density of 70,000 cells/well in Millicell® 24-well cell culture insert plates and maintained in an incubator (37° C., 5% CO2, 95% RH) for 21 days with media change on alternate days.
Stock solutions (10 mM) of the test compounds, atenolol (low permeability marker), propranolol (high permeability marker) and digoxin (substrate for P-gp transport pathway) were prepared in dimethylsulfoxide (DMSO). An intermediate stock solution (1 mM) was prepared by diluting 10 μL of 10 mM master stock solution with 90 μL of neat DMSO. A working stock solution (10 μM) was prepared by diluting 50 μL of 1 mM with 4950 μL of FaSSIF buffer. Post addition of compounds to the FaSSIF, samples were subjected to sonication for 2 hours, and centrifuged at 4000 RPM for 30 minutes at 37° C. The 4 mL of resultant supernatant was directly used in the assay. The final DMSO concentration in the transport experiments was 1%.
On the day of assay, Caco-2 monolayers were washed twice with transport buffer (HBSS, pH 7.4) and pre-incubated for 30 min (37° C., 5% CO2, 95% RH) in an incubator. The electrical resistance of the monolayers was measured with a Millicell®-ERS system. Monolayers with trans-epithelial electrical resistance (TEER) values greater than 350 ohm·cm^2 were selected for the assay.
The assay was conducted in absorptive direction (A2B) and secretory (B2A) directions. Transport experiments were initiated by addition of transport assay buffer (FaSSIF buffer prepared in HBSS) consisting of compounds to the donor compartment (apical chamber A-B; basolateral chamber B-A) in duplicate (n=2) wells. Drug free HBSS buffer (pH 7.4) containing 1% bovine serum albumin (BSA) was introduced to the receiver (A-B-basolateral; B-A-Apical) compartments. The volumes of apical and basolateral compartments were 0.4 and 0.8 mL, respectively. After adding dosing solution, plates were incubated in an incubator for 120 minutes at 37° C. After 120 minutes, donor and receiver samples were collected and matrix matched (1:1, 30 μL study sample+30 μL blank buffer) with the opposite buffer. Dosing samples matrix matched (1:1, 30 μL study sample+30 μL blank buffer) with the opposite buffer. Samples were processed by adding acetonitrile containing internal standard (60 μL study sample+200 μL acetonitrile containing internal standard-Tolbutamide, 500 ng/mL). Samples were vortexed and centrifuged at 4000 rpm for 10 minutes. The obtained supernatant (100 μL) was diluted with 100 μL of water and transferred to fresh 96 well plates. The concentration of compounds in the samples was analyzed by liquid chromatography tandem mass spectrometry (LC-MS/MS) method using discovery grade bio-analytical method, as applicable.
The mean apparent permeability (Papp×10^−6 cm/sec) of the test compounds, atenolol, propranolol and digoxin were calculated as follows:
where dq/dt=rate of transport (rate of transport of compound in the receiver compartment), C0=initial concentration in the donor compartment, A=surface area of the effective filter membrane.

Compound | IC50 [1] [µM] | Papp A→B at 120 min, 10 μM [2] [×10⁻⁶ cm/s] | Papp B→A at 120 min, 10 μM [2] [×10⁻⁶ cm/s]
CCCCC1(CCCC)CN(c2ccc(Br)cc2)c2cc(SC)c(OCC(=O)O)cc2S(=O)(=O)C1 [Example 3, 2-((5-(4-bromophenyl)-3,3-dibutyl-7-(methylthio)-1,1-dioxido-2,3,4,5-tetrahydro-1,5-benzothiazepin-8-yl)oxy)acetic Acid] | 2.82 | 4.1 | 1.9
CCCCC1(CCCC)CN(c2ccc(O)cc2)c2cc(SC)c(OCC(=O)O)cc2S(=O)(=O)C1 [Example 4, 2-((3,3-dibutyl-5-(4-hydroxyphenyl)-7-(methylthio)-1,1-dioxido-2,3,4,5-tetrahydro-1,5-benzothiazepin-8-yl)oxy)acetic Acid] | 1.99 | 3.3 | 8.9
